# Measured values from patent US20140193455A1, “PHARMACEUTICAL COMPOSITION FOR PREVENTION OR TREATMENT OF STEROID-INDUCED DIABETES AND HEALTH FUNCTIONAL FOOD” (priority 2013, published 2014).
# Test system: INS-1 cells
# Experiment: Cell counting analysis (trypan blue) of living INS-1 cells
# Assay type: cell-based, rat
# Settings: for decrease in INS-1 cell survival compared to the control: FIG. 4; for decrease in survival of INS-1 cells compared to control: treated alone
# Protocol: The rat insulin-secreting cell line INS-1 was maintained in RPMI-1640 medium containing 10% heat-inactivated FBS (fetal bovine serum), 100 units/ml of penicillin and 100 μg/ml of streptomycin at 37° C. under the conditions of 95% humidity and 5% CO2.
# One day before treatment with reagent or CLCE, INS-1 cells were cultured in a 24-well plate at a concentration of 1×10^5 cells/well in a volume of 500 μL. The INS-1 cells were treated with the indicated concentrations of reagent (Dex, LY294002, IL-1β, STZ, TG or TN) and/or CLCE for the indicated time. At each point of time, the cells were stained with trypan blue dye, and the living INS-1 cells were counted under a microscope. The cell counting was repeated three times. Data were expressed as the mean of three independent experiments.
Compound,decrease in INS-1 cell survival compared to the control (treated alone for 24 hours),decrease in survival of INS-1 cells compared to control (FIG. 3),other results
"CN(N=O)C(=O)N[C@H]1C(O)O[C@H](CO)[C@@H](O)[C@@H]1O (mixture of isomers) [STZ, streptozotocin]",~82%,–,–
"C[C@@H]1C[C@H]2[C@@H]3CCC4=CC(=O)C=C[C@]4(C)[C@@]3(F)[C@@H](O)C[C@]2(C)[C@@]1(O)C(=O)CO [Dex, dexamethasone]",–,about 55%,"decrease in survival rate of INS-1 cells (treated alone for 24 hours, FIG. 1A): about 50%"
O=c1cc(N2CCOCC2)oc2c(-c3ccccc3)cccc12 [LY294002],–,about 24%,"degree of the decrease in survival of INS-1 cells (combination of Dex and LY294002, FIG. 3): 75%"
"C/C=C(/C)C(=O)O[C@H]1C(C)=C2[C@H]([C@@H]1OC(=O)CCCCCCC)[C@@](C)(OC(C)=O)C[C@H](OC(=O)CCC)[C@@]1(O)[C@H]2OC(=O)[C@@]1(C)O [TG, thapsigargin]",~88%,–,–
interleukin-1β [IL-1β],about 45%,–,–
tunicamycin [TN],~50%,–,–
